Test systems include BT-549; MDA-MB-435; MDA-N; MDA-MB-231; Hs-578T; TK-10; Malme-3M; SR; DU-145; NCI/ADR-RES; M14; PC-3; MCF7; HL-60; KM-20L2; A498; DMS-273; SNB-78; M19-MEL; XF498.
What all share (test): DTP human tumour cell line panel, 48 h

The structures appear in SMILES notation.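 96-well plates; 48 h exposure; 5 concentrations. Endpoints by linear interpolation between flanking doses. Not reached: highest tested concentration assigned. GI50 is the concentration that inhibits growth by half.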 The source made the active and inactive calls. No stated cut-off is given here; in the data, active = GI50 up to about 1.1 µM and inactive = higher.

As a reminder, the GI50 is the concentration giving 50% growth inhibition.

For `Cc1cc(C)c(S(=O)(=O)N(CCCN)OCCCN)c(C)c1`, the GI50 with BT-549, with MDA-MB-435, with MDA-N, in the experiment on MDA-MB-231, in the experiment on Hs-578T and with TK-10 was > 100 µM (inactive) in each case. For the same compound, the GI50 was > 100 µM (inactive) with Malme-3M; > 100 µM (inactive) in the experiment on SR; > 100 µM (inactive) with DU-145; > 100 µM (inactive) with NCI/ADR-RES; 31.4 µM (inactive) in the experiment on M14; > 100 µM (inactive) with PC-3. Also, in the experiment with MCF7, the GI50 is > 100 µM (inactive).

For `COc1ccc(/C(C)=N/NC(=S)N(C)C)c(O)c1`, the GI50 with BT-549 is 18.9 µM (inactive); in the experiment on MDA-MB-435, 27.7 µM (inactive); in the experiment with MDA-N, 16 µM (inactive); in the experiment on MDA-MB-231 it was 5.96 µM (inactive); with Hs-578T, 53.1 µM (inactive); with SR it was 36.3 µM (inactive). Besides, the GI50 in the experiment on DU-145 is 11.5 µM (inactive); with M14, 2.72 µM (inactive); in the experiment on PC-3 it was 6.4 µM (inactive).

Regarding `CCC(=O)NC(Nc1ccccc1F)(C(F)(F)F)C(F)(F)F`, the GI50 in the experiment on BT-549, in the experiment on MDA-MB-435, with MDA-N, in the experiment on MDA-MB-231, in the experiment on Hs-578T and with TK-10 was > 100 µM (inactive) in each case. The GI50 in the experiment on SR, in the experiment with DU-145, in the experiment on NCI/ADR-RES, in the experiment on M14, in the experiment on HL-60 and in the experiment on PC-3 was > 100 µM (inactive) each time. The GI50 in the experiment with MCF7 is > 100 µM (inactive).

On to `CC(=O)OCc1cc(=O)n(C)c2c3c4c(cc12)c(C)cc(=O)n4CO3`, for which the GI50 was 2.02 µM (inactive) in the experiment on KM-20L2; 2.38 µM (inactive) in the experiment on A498; 0.906 µM (active) in the experiment with Malme-3M; 0.982 µM (active) in the experiment on DMS-273; 1.99 µM (inactive) with SNB-78; 1 µM (active) in the experiment on NCI/ADR-RES. The GI50 in the experiment with HL-60 was 1.4 µM (inactive); in the experiment with M19-MEL it was 1.43 µM (inactive); with XF498, 1.17 µM (inactive); in the experiment on MCF7, 2.3 µM (inactive).

As for `C1=Nc2ccccc2Cn2nncc21`, the GI50 was > 100 µM (inactive) in the experiment with KM-20L2; > 100 µM (inactive) in the experiment on TK-10; 63 µM (inactive) in the experiment with Malme-3M; > 10 µM (inactive) in the experiment on DMS-273; 60.3 µM (inactive) in the experiment with SR; 67.3 µM (inactive) with M14. For the same compound, the GI50 with HL-60 is 25.4 µM (inactive); with M19-MEL it was > 100 µM (inactive); with XF498 it was > 100 µM (inactive).

Regarding `CCCCC1(C2c3ccccc3Oc3ccccc32)C(=O)N(c2ccccc2)N(c2ccccc2)C1=O`, the GI50 was 22.5 µM (inactive) with KM-20L2; 64.9 µM (inactive) in the experiment with A498; > 100 µM (inactive) in the experiment with Malme-3M; 47 µM (inactive) with DMS-273; 37.1 µM (inactive) in the experiment on SNB-78; 62.2 µM (inactive) in the experiment on NCI/ADR-RES. Also, the GI50 with HL-60 was 21.9 µM (inactive); in the experiment on M19-MEL it was > 100 µM (inactive); in the experiment with XF498 it was > 31.9 µM (inactive); in the experiment on MCF7 it was 55 µM (inactive).

As for `Cn1c(/C=C/CO)c(CO)c2c1C(=O)C=C(N1CC1)C2=O` [APAZIQUONE], the 50% growth inhibitory concentration (GI50) is 0.0147 µM (active) with KM-20L2; < 0.0124 µM (active) with A498; < 0.01 µM (active) in the experiment on Malme-3M; < 0.01 µM (active) in the experiment with DMS-273; 0.2 µM (active) in the experiment on SNB-78; < 0.01 µM (active) with NCI/ADR-RES. For the same compound, the GI50 with HL-60 was 0.0259 µM (active); with M19-MEL it was < 0.01 µM (active); in the experiment with XF498 it was < 0.01 µM (active); in the experiment on MCF7, < 0.01 µM (active).

Values taken from ChEMBL document CHEMBL1201862, “PubChem BioAssay data set” (2004).
